Assay results from patent US20250304625A1, “ARTICLES AND METHODS FOR INHIBITING METHIONINE AMINOPEPTIDASE ACTIVITY” (Vanderbilt University, priority 2022, published 2025).

Columns and labels:
TKPTS cells [1] = test: TKPTS cell proliferation by CellTrace flow cytometry; format: cell-based, murine; settings: Zng1 mutant cells compared to WT, 3 μM TPA, three days
Protocol: TKPTS cells were seeding at 2,000 to 4,000 cells per well of 24- or 12-well tissue culture treated multi-well plates and incubated overnight at 37° C. Cells were staining with CellTRACE violet (Invitrogen, C34557) as described by manufacturer's protocol. Briefly, CellTRACE solution was prepared in PBS at a 1:1,000 dilution, added to the cells, and cells were incubated for 20 min at 37° C. Cells were then washed two times in cell culture media supplemented with 7% FBS, and replaced with fresh cell culture media supplemented with desired chemical treatments (3 μM TPA, Sigma, 723134; 5 μg/ml TNP470, Sigma, T1455; or 50 nM Bengamide B, Santa cruz, sc-397521A). Stock solutions of drugs were prepared in ACS-grade DMSO (Fisher Scientific, D136). […] After three days of growth, cells were stained with MitoTracker far-red (Invitrogen, M22426; 1:2500 dilution for 20 min at 37° C.) and MitoSOX red (Molecular probes, M36008: 1,1000 for 20 min at 37° C.) following manufacture's protocols. Cells were washed with PBS, trypsinized, and transferred to Eppendorf tubes prior to fixation in 4% PFA (Alfa aesar, J61899). Cells were fixed for 20 min at room temperature, centrifuged at 200×g for 10 min and washed with PBS prior to resuspension in 300 μl FACS buffer (2% FBS, 0.02% sodium azide in PBS). All flow cytometry data were collected using a BD LSRII flow cytometer with FACSDIVA software and analyzed using FlowJo (FlowJo LLC). Samples were gated forward scatter height (FSC-H) by forward scatter area (FSC-A) and side scatter height (SSC-H) by side scatter area (SSC-A) to remove doublet populations. The singlet population was gated SSC-A by FSC-A to isolate live cells. The resulting cell population was then assessed for assay-specific fluorescent markers and the median fluorescence intensity (MFI) quantified.

TKPTS cells [2] = test: Seahorse XF96 cell mitochondrial stress test (oxygen consumption rate); format: cell-based, murine; settings: Zng1^−/− cells pre-treated with 3 μM TPA
Protocol: 8,000 WT or Zng1 mutant vehicle treated TKPTS cells or TKPTS cells serially passaged in 3 μM TPA (Sigma, 723134) were plated in individual wells of seahorse plates in complete DMEM F12 media described above. Cells were resuspended in mitochondria assay media (Seahorse Agilent pH 7.4 media+1 mM pyruvate+10 mM glucose+2 mM glutamine). No TKPTS cells were added to the four wells in the corners of the plate as a background control. For the mitochondrial stress test, the cartridge was sequentially loaded with oligomycin (15 μM), FCCP (15 μM), and rotenone/antimycin A (5 μM) (diluted in mitochondria assay media) for injection into the wells. To normalize across wells by cell density, the Seahorse plate was imaged using a BioTek Cytation 5. Oxygen consumption and extracellular acidification rates were collected using a Seahorse XFe96 Analyzer and analyzed using Wave Desktop software (Agilent Technologies).

cell lines = settings: compared to other chelators (e.g. TPEN); cited from earlier work
zng1 transcript = test: zng1 expression in whole zebrafish larvae (qPCR); format: in vivo; settings: WT larvae, immersion, 20 μM TPEN vs ethanol vehicle
Protocol: For all experiments larval zebrafish were bred naturally and collected into embryo media and were maintained at 28° C. on a 14/10 h light/dark cycle for duration of experiments. For survival experiments, zebrafish larvae were split into even densities into 6 or 12 multi-well plates in 5 mL or 1 mL embryo media respectively at 3 dpf. Stock solutions of METAP2 inhibitor TNP-470 (Sigma, T1455) and METAP1/2 inhibitor Bengamide B (Santa cruz, sc-397521A) were prepared in ACS-grade DMSO (Fisher Scientific, D136) and TPEN (Sigma, P4413) was prepared in ethanol and stored at −20° C. TNP-470, Bengamide B, and/or TPEN were applied into embryo media as well as a DMSO and/or ethanol vehicle controls at 3 dpf. Zebrafish survival was monitored daily until 6 dpf and all moribund or dead animals were removed. […]
For RNA isolation from dissected mouse tissue, mice were humanely euthanized, tissues harvested and immediately flash frozen in liquid nitrogen and stored at −80C. […] Quantitative PCR was performed in duplicate-quadruplicate 25 μL reactions using 2× iQ SYBR Green SuperMix (BioRad, 1708882) run on an BioRad CFX96 Real-Time System instrument using gene-specific primers (zebrafish: P34-P39, mice: P40-P43, cell lines: 44-69, Table S5). Data were analyzed with the ΔΔCt method (Livak and Schmittgen, 2001) or presented as relative expression values.

Structure (SMILES)	proliferation (CellTrace dye retention) (TKPTS cells [1])	basal and maximal respiration, ATP production, and proton leak (OCR) (TKPTS cells [2])	cytotoxicity towards cell lines (cell lines)	zng1 transcript (zng1 transcript)
c1ccc(CN(Cc2ccccn2)Cc2ccccn2)nc1 [TPA, tris(2-pyridylmethyl)amine]	significantly slowed proliferation	significantly impaired	lower cytotoxicity	
c1ccc(CN(CCN(Cc2ccccn2)Cc2ccccn2)Cc2ccccn2)nc1 [TPEN, N,N,N′,N′-Tetrakis(2-pyridylmethyl)ethylenediamine]				significant induction
